Here are results for seven compounds from PMC6476959, “Novel 3,4-Dihydroisocoumarins Inhibit Human P-gp and BCRP in Multidrug Resistant Tumors and Demonstrate Substrate Inhibition of Yeast Pdr5” (Frontiers in Pharmacology, 2019).

“And” between values parts separate entries of the source, which are not always exact repeats. Equal entries are not always repeated. “Also recorded” adds a separate entry of the source.

One data set relates to A549 cells. Description: CellTiter-Glo cell viability assay (cytotoxicity), A549. The settings on record: Homo sapiens, A549; 48 h, mean ± SEM. In kind it is cell-based, human. As to the method: (§1) The human lung adenocarcinoma cell line A549 was cultured in DMEM medium supplemented with 10% fetal bovine serum (FBS), 100 U/mL penicillin and 100 μg/mL streptomycin. P-gp-expressing human colon adenocarcinoma cells HCT-15 were cultured in RPMI 1640 medium supplemented with 10% FBS, 100 U/mL penicillin and 100 μg/mL streptomycin. BCRP-expressing MCF-7/MX human breast adenocarcinoma cells were cultured in DMEM medium supplemented with 10% FBS, 100 U/mL penicillin and 100 μg/mL streptomycin. MRP1-expressing H69AR human small cell lung cancer cells were cultured in RPMI 1640 medium (ATCC modification) supplemented with 20% FBS, 100 U/mL penicillin and 100 μg/mL streptomycin. All cancer cell lines employed have been systematically characterized regarding their respective ABC transporter expression profile ([Sachs et al., 2019]).
(§2) Cytotoxic activity of test compounds was analyzed after 48 h using the CellTiter-Glo Luminescent Cell Viability Assay published previously ([Weber et al., 2017]) in 384-well plates with the following cell densities: A549, MCF-7/MX: 2 × 10^3 cells/well; HCT-15: 3 × 10^3 cells/well; H69AR: 5 × 10^3 cells/well. Pipetting was conducted with the CyBi-Well 96-channel simultaneous pipettor (Analytik Jena AG, Jena, Germany). For generation of dose-response curves and calculation of IC50 values, the four-parameter logistic model was applied.

For another data set, the system named is HCT-15 cells. Description: CellTiter-Glo cell viability assay (cytotoxicity), HCT-15. Type of data set: cell-based. The settings on record: Homo sapiens, 48 h, P-gp expressing, mean ± SEM. As to the method:
as §1, §2

A further data set deals with MCF-7/MX cells. Description: CellTiter-Glo cell viability assay (cytotoxicity), MCF-7/MX. In kind it is cell-based. The settings on record: Homo sapiens, MCF7/MX; 48 h, BCRP-expressing, mean ± SEM. As to the method:
as §1, §2

Another data set relates to H69AR cells. Briefly: CellTiter-Glo cell viability assay (cytotoxicity), H69AR. In kind it is cell-based. The settings on record: Homo sapiens, 48 h, MRP1-expressing, mean ± SEM. The protocol:
as §1, §2

A further data set concerns the target T1, BCRP (Homo sapiens, UniProt Q9UNQ0).
T1 construct: endogenous in cells; host or cells: MCF-7/MX human breast adenocarcinoma cells (mitoxantrone-selected)
T1 sequence (Q9UNQ0 1-655): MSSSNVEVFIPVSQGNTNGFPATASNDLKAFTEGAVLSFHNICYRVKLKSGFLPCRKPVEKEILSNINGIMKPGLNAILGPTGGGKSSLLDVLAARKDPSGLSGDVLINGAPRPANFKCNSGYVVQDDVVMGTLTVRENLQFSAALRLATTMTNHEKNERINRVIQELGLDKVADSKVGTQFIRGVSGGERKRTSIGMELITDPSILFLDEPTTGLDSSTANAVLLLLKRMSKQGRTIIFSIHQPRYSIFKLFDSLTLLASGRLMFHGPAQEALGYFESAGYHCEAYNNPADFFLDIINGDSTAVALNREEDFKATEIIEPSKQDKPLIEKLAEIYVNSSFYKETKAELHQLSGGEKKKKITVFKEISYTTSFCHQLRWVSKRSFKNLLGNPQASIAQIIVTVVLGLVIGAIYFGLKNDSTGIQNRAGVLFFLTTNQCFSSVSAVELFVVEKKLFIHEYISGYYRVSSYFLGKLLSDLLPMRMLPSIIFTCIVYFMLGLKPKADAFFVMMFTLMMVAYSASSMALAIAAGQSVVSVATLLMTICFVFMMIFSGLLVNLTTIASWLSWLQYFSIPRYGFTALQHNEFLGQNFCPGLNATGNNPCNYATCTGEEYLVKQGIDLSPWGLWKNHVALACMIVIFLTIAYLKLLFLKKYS
Briefly: BCRP transport assay (Hoechst 33342) in MCF-7/MX cells. In kind it is cell-based. The protocol:
Breast cancer resistance protein transport activity was determined in the BCRP-expressing MCF-7/MX cell line. Hoechst 33342 was applied as transporter substrate and 1 μM Ko143 as positive control or 0.5% DMSO as negative control and the assay was performed according to the P-gp assay. Fluorescence was measured at an excitation wavelength of 355 nm and emission wavelength of 460 nm. The transport activity of BCRP was analyzed by determining the plateau of the fluorescence-time curve by using non-linear regression (one-phase exponential fit). Normalization of the data to Ko143 (100% inhibition) and DMSO (0% inhibition) was performed.

Data set [1] deals with T2, Pdr5 (Saccharomyces cerevisiae, UniProt P33302).
T2 construct: effect on (A) the transport activity of Pdr5 WT and (B) their effect on the ATPase activity; made in house; host or cells: S. cerevisiae YRE1001 (pdr1-3 background), isolated plasma membranes
Description: Pdr5 ATPase assay (oligomycin-sensitive) in plasma membrane preparations. Type of data set: biochemical. The settings on record: highest concentrations (10 mM), in comparison to Pdr5 WT in the absence of any compound. As to the method:
(§3) Saccharomyces cerevisiae cells expressing Pdr5 WT or the E1036Q (EQ) mutant were cultured to an OD600 of 1.5 in YPD-media at 25°C. The nitrogen source was replenished by addition of a 10th volume of 5x YP (50 g/l yeast extract, 100 g/l peptone). The cells were grown to an OD of 3.5 and harvested (5000 ×g at 4°C for 15 min). The isolation of Pdr5 containing PMs was performed as described ([Kolaczkowski et al., 1996]; [Ernst et al., 2008]).
Oligomycin (OM)-sensitive ATPase activity was measured from 0.8 μg PM containing Pdr5 incubated with 2 mM ATP, 5 mM MgCl2 in 270 mM TRIS-glycine buffer (pH 9.5) and 2.5 μl of the test compounds or DMSO as a control in a total volume of 100 μl. To reduce the background activities, 0.2 mM ammonium molybdate, 10 mM NaN3 and 50 mM KNO3, respectively, were added ([Dufour et al., 1988]; [Goffeau and Dufour, 1988]). In a second assay, OM (20 μg/ml) was added to an otherwise identical setup. After incubation at 30°C for 20 min, the reaction was stopped by adding 25 μl of the reaction to 175 μl 40 mM H2SO4. The amount of released inorganic phosphate was determined by a colometric assay in 96-well plates ([Goffeau and Dufour, 1988]; [Decottignies et al., 1994]; [Wada et al., 2002]). The difference of both assays ( ± OM) corresponds to the specific ATPase activity of Pdr5 ([Ernst et al., 2008]).

The next data set has as its target T3, P-gp (Homo sapiens, UniProt P08183).
T3 construct: endogenous in cells; host or cells: HCT-15 human colon adenocarcinoma cells
Description: P-gp transport assay (calcein-AM) in HCT-15 cells. Type of data set: cell-based. As to the method: The transport of calcein-AM by P-gp and its modulation by test compounds was analyzed in the P-gp-expressing HCT-15 cell line. 5 × 10^4 cells were seeded in black 96-well plates and incubated at 37°C and 5% CO2 for 24 h. The culture medium was removed and replaced by Hank’s balanced salt solution supplemented with 10 mM HEPES. Test compounds, 2.5 μM PSC833 (positive control) or 0.5% DMSO (negative control) were added in triplicates and incubated for 30 min at 37°C and 5% CO2. The substrate calcein-AM was added (final concentration 0.5 μM) and the fluorescence (excitation 485 nm, emission 520 nm) was measured over 3 h with the Infinite m1000 pro microplate reader (Tecan Group AG, Männedorf, Switzerland) at 37°C. The transport activity of P-gp was analyzed by determining the slope of the linear part of the fluorescence-time curve (0–30 min) using linear regression. Normalization of the data to PSC833 (100% inhibition) and DMSO (0% inhibition) was performed.

The target of data set [2] is T2, Pdr5. Briefly: Pdr5 transport assay (R6G) in plasma membrane preparations. In kind it is biochemical. Set-up: R6G transport activity of Pdr5 WT inhibited to (initial screen): dose or concentration left out as unconfirmed. The settings on record: for R6G transport activity of Pdr5 WT inhibited to (initial screen): relative to Pdr5 WT without compound. As to the method:
as §3
Active transport of R6G was measured according to the protocol developed by [Kolaczkowski et al. (1996)], using a Tecan Infinite 200 pro reader (Tecan Group AG, Männedorf, Switzerland). 6 μg of the isolated PM containing Pdr5 were resuspended in 200 μl of the transport buffer (50 mM HEPES, pH 7.0, 5 mM MgCl2, 10 mM NaN3, and 150 nM R6G) and incubated in a black 96-well plate at 30°C. 5 μl of the test compound were added at the indicated concentrations. Active transport was initiated by the addition of 10 μl 200 mM ATP and fluorescence intensity was recorded in 15 s-intervals for 20 min (excitation wavelength at 524 nm, emission wavelength at 558 nm, number of flashes 30, integration time 2000 μs). IC50 determination was performed with a serial dilution of the test compounds.

Setting [3] is: human, P-gp-expressing HCT-15 cells, probe calcein-AM (0.5 μM), normalized to 2.5 μM PSC833 (100%) and DMSO (0%), read-out: Relative inhibition of P-gp.

T3 sequence (P08183 whole entry): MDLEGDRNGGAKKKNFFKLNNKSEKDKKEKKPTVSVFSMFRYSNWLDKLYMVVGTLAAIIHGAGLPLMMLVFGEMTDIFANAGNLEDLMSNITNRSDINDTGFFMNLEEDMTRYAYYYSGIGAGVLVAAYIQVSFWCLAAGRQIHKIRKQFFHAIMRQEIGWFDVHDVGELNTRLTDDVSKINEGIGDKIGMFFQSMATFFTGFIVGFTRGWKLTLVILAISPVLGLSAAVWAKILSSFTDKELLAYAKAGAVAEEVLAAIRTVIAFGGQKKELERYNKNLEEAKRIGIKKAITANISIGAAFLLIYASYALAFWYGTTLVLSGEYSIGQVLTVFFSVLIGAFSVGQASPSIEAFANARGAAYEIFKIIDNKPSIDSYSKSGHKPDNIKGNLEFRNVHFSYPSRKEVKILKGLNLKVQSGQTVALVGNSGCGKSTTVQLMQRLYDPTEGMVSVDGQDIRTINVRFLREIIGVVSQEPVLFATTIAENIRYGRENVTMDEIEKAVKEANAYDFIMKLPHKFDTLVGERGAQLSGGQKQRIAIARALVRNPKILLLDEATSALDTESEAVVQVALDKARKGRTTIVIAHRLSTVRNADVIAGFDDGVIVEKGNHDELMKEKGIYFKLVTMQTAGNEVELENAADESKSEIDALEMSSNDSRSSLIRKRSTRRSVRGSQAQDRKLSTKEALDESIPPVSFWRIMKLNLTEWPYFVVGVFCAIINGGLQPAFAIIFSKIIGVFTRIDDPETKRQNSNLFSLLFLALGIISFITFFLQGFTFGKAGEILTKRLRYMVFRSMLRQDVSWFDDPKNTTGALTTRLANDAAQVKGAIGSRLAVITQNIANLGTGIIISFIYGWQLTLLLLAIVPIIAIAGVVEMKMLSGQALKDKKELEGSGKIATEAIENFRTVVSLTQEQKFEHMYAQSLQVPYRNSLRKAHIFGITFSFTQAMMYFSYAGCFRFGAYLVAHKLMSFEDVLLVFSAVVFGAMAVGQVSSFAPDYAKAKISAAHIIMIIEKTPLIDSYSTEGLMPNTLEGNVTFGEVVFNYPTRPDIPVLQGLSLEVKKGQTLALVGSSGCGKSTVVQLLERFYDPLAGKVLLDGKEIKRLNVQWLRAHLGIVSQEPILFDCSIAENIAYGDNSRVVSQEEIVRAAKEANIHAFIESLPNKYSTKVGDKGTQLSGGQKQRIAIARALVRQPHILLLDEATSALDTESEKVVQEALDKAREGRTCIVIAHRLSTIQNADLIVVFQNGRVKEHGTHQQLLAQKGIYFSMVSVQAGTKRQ
T2 sequence (P33302 whole entry): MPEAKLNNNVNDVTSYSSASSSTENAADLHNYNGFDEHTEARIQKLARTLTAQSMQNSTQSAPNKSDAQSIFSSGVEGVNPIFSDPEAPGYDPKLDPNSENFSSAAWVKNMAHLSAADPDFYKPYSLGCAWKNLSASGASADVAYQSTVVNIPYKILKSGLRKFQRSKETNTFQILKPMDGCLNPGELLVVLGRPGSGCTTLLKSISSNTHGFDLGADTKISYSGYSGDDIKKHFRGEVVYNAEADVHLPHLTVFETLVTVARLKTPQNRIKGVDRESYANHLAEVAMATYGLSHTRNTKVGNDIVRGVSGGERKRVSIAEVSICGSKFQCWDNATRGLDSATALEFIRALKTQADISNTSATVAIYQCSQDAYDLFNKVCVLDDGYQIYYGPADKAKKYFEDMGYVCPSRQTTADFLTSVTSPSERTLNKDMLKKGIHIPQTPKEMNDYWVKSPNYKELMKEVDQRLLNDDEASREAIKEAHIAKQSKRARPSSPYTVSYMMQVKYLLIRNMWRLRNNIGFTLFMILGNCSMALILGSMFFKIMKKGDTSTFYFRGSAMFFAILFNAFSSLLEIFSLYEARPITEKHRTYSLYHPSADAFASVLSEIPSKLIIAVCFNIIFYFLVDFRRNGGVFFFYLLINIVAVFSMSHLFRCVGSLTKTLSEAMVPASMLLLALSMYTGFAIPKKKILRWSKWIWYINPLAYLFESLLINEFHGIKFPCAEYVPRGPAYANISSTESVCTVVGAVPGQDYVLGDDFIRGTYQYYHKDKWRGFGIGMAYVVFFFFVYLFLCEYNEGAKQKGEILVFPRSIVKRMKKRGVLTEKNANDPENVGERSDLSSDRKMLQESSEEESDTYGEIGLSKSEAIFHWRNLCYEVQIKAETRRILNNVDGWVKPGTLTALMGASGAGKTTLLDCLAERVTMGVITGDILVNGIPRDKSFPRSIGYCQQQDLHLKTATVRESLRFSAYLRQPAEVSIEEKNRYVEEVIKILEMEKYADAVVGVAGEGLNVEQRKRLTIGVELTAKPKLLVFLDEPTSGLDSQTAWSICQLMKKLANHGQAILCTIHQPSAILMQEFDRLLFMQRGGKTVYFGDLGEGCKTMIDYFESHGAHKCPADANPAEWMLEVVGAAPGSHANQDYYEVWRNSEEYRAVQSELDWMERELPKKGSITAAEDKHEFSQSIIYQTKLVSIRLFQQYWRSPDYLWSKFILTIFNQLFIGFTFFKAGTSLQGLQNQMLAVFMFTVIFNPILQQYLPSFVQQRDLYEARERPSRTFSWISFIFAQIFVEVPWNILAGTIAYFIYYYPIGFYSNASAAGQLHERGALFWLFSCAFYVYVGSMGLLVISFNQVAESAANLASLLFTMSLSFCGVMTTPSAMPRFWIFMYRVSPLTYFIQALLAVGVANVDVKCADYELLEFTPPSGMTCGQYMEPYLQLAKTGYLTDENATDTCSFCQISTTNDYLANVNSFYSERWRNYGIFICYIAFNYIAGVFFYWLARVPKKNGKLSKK

Consider `COc1cc(O)c2c(c1)C[C@H](CCO)OC2=O` [(R)-19a], for which the concentration for half-maximal inhibition (IC50) in the data set on A549 cells, with HCT-15 cells, with MCF-7/MX cells and with H69AR cells was more than 100 µM throughout. In addition, the “Inhibition of BCRP (in words)” value at BCRP was “completely abolished inhibitory ability”. The “ATPase activity of Pdr5 WT inhibited to (initial screen)” value (shortened to “ATPase activity of Pdr5 WT inhibited”) at Pdr5 [1] is recorded as “nearly no effect; also recorded: no inhibition of the ATPase activity was observed”.
As for `COc1cc(O)c2c(c1)C[C@@H](C)OC2=O` [6-Methoxymellein (3), 6-methoxymellein], the 50% inhibitory concentration (IC50) in the data set with A549 cells, with HCT-15 cells, with MCF-7/MX cells and in the data set on H69AR cells was more than 100 µM in each case. Also, the “Inhibition of P-gp (in words)” value on P-gp was “did not differ significantly from those of derivative 14”. Besides, the “Inhibition of BCRP (in words)” value at BCRP is “no inhibitory activity could be observed”. Moreover, the “R6G transport activity of Pdr5 WT inhibited to (initial screen)” value on Pdr5 [2] (listed as 3) is recorded as “no effect”; on Pdr5 [2] (listed as 6-methoxymellein (3)) it was “did not interfere with Pdr5-mediated R6G transport”. The “ATPase activity of Pdr5 WT inhibited” value at Pdr5 [1] (listed as 3) was “nearly no effect”; on Pdr5 [1] (listed as 6-methoxymellein (3)), “no inhibitory effect”.
As for `COc1cc2c(c(OC)c1)C(=O)OCC2` [Compound 14a], the half-maximal inhibitory concentration (IC50) with A549 cells, in the data set on HCT-15 cells, with MCF-7/MX cells and in the data set with H69AR cells was more than 100 µM throughout. The “Relative inhibition of P-gp, span over the tested concentrations” value at P-gp (different concentrations, normalized to PSC833) is on record as “up to 10%”. Besides, the “Inhibition of BCRP (in words)” value at BCRP is reported as “did not inhibit BCRP”.
For `COc1cc(O)c2c(c1)C[C@H](CCO[Si](C)(C)C(C)(C)C)OC2=O` [(R)-19], the IC50 is 47.5 ± 3.2 µM with A549 cells; 57.1 ± 7.5 µM in the data set on HCT-15 cells; 28.1 ± 0.7 µM with MCF-7/MX cells; more than 100 µM in the data set with H69AR cells; 26 ± 3.5 µM at Pdr5 [2]. Moreover, the inhibition at 20 μM on P-gp (setting [3]) is more than 20%. In addition, the “R6G transport activity of Pdr5 WT inhibited to (initial screen)” value on Pdr5 [2] is recorded as “inhibit the transport of R6G completely; also recorded: inhibit the transport activity of Pdr5 WT completely”.
As to `COc1cc(O)c2c(c1)C[C@@H](CCO)OC2=O` [(S)-19a], the IC50 in the data set on A549 cells is more than 100 µM; in the data set with HCT-15 cells it was more than 100 µM; in the data set on MCF-7/MX cells it was 89.8 ± 4.9 µM; with H69AR cells it was more than 100 µM. Besides, the “Inhibition of BCRP (in words)” value at BCRP is “completely abolished inhibitory ability”. Further, the “ATPase activity of Pdr5 WT inhibited” value at Pdr5 [1] was “nearly no effect; also recorded: no inhibition of the ATPase activity was observed”.
With `COc1cc(O)c2c(c1)C[C@@H](CCO[Si](C)(C)C(C)(C)C)OC2=O` [(S)-19], the 50% inhibitory concentration (IC50) in the data set on A549 cells is 42 ± 3.9 µM; with HCT-15 cells, more than 100 µM; in the data set on MCF-7/MX cells, 33.5 ± 7.5 µM; in the data set with H69AR cells, 86.8 ± 9.2 µM; against Pdr5 [2], 5.3 ± 0.6 µM. Also, on P-gp (human, P-gp-expressing HCT-15 cells, probe calcein-AM (0.5 μM), 10 μM, normalized to 2.5 μM PSC833 (100%) and DMSO (0%), read-out: Relative inhibition of P-gp), the inhibition at 10 μM was 37.1 ± 2.9%. In addition, on P-gp (setting [3]), the inhibition at 20 μM was more than 20%. In addition, the “R6G transport activity of Pdr5 WT inhibited to (initial screen)” value on Pdr5 [2] is reported as “inhibit the transport of R6G completely; also recorded: inhibit the transport activity of Pdr5 WT completely”.
For `COc1cc(O)c2c(=O)oc3ccccc3c2c1` [Compound 21], the IC50 with A549 cells, in the data set with HCT-15 cells, in the data set on MCF-7/MX cells and in the data set with H69AR cells was more than 50 µM in each case. For the same compound, the “Relative inhibition rate of P-gp” value on P-gp (highest concentration used) is recorded as 20.0 ± 1.2%. Besides, at Pdr5 [1], the “ATPase activity of Pdr5 WT inhibited” value was 50% and 54%.
